Tests used:
[1] = tested on: hTERT+TK-transduced human corneal stromal cells; experiment: Susceptibility to ganciclovir treatment, cell count with trypan-blue staining; format: cell-based; settings: n=3
Procedure: (§1) The susceptibilities of the transduced human corneal stromal cells to ganciclovir treatment were investigated by the following process. The hTERT-transduced human corneal stromal cells of Comparative Example and the hTERT+TK-transduced human corneal stromal cells of Example 1 were separately seeded at 2×10^4 cells/cm^2 in a 24-well plate, and cultured under conditions of 37° C. and 5% CO2 (medium: DMEM, 10% FBS, 100 U/ml penicillin and 100 μg/ml streptomycin). On the 1st day after seeding, ganciclovir treatment was started (treatment concentration: 0, 10^−7, […], […], and 10^−4 M; time course: day 0, 2, 4, 6, 8, 10, and 12). The susceptibility of each type of the transduced human corneal stromal cells to ganciclovir treatment was determined using 3 wells for each concentration at each time point (n=3). At each time point, the number of the cells was counted with trypan-blue staining. For counting with trypan-blue staining, an erythrocytometer (hematometer; product name: Burker-Turk deep 1/10 mm; product number: Tokyo No. 0880 (ERMA, Inc.)) was used. Immediately after staining, each sample was placed in a counting chamber of the erythrocytometer. Immediately after that, the number of the cells was counted. The average number of the cells on the zero-day of ganciclovir treatment at each treatment concentration was used as a baseline (100%) for the results of the cell number at each time point.

[2] = tested on: hTERT-transduced human corneal stromal cells (not transduced with the HSV-TK gene); experiment: as above; format: cell-based; settings: any treatment concentration (up to 10^-4 M), 12th day after ganciclovir treatment, n=3
Procedure: as §1

SMILES: Nc1nc(O)c2ncn(COC(CO)CO)c2n1 [ganciclovir]
- number of the cells after ganciclovir treatment ([1]; 10^-4 M treatment group, 6th day after ganciclovir treatment): all the cells died
- number of the cells after ganciclovir treatment ([1]; 10^-7, 10^-6 and 10^-5 M groups, from the 8th day after ganciclovir treatment): concentration-dependent decrease in the number of the cells
- number of the cells after ganciclovir treatment [2]: did not decrease

— patent US20120149598A1, “FEEDER CELLS FOR TARGET CELL INDUCTION” (priority 2009, published 2012)
